Legend:
Test in all cases: MIC by microtiter dilution in Mueller Hinton Broth
Conditions in all cases: 5×10^5 CFU/ml, 37° C., 18 hours, A600
E. Coli = type: cell-based, Escherichia coli
Protocol: (§1) Minimal inhibitory concentrations (MIC) were determined by a standard microtiter dilution method in Mueller Hinton Broth (MHB) medium. Bacteria cells were grown overnight at 37° C. in MHB medium and diluted to a bacteria concentration of 10^6 colony forming units (CFU)/ml. The bacteria concentration was adjusted to 5×10^5 CFU/ml by adding 100 μl of a suspension of the bacteria cultured under the above conditions to 100 μl of a polylysine aqueous solution diluted to 10^3 to 1 μg/ml, and samples were prepared. The samples were incubated at 37° C. for 18 hours, and the MICs (lowest polylysine concentration that inhibited cell growth) after 18 hours were determined.

P. aeruginosa = type: cell-based, Pseudomonas aeruginosa
Protocol: as §1

S. aureus = type: cell-based, Staphylococcus aureus
Protocol: as §1

S. marcescence = type: cell-based, Serratia marcescens
Protocol: as §1

C. albicans = type: cell-based, Candida albicans
Protocol: as §1

F. solani = type: cell-based, Fusarium solani
Protocol: as §1

## epsilon-polylysine [EPL]
E. Coli
  MIC: 7.8 µg/mL
P. aeruginosa
  MIC: 7.8 µg/mL
S. aureus
  MIC: 7.8 µg/mL
S. marcescence
  MIC: 15.6 µg/mL
C. albicans
  MIC: 54 µg/mL
F. solani
  MIC: 109 µg/mL

## methacrylated epsilon-polylysine [MA-EPL]
E. Coli
  MIC: 7.8 µg/mL
P. aeruginosa
  MIC: 7.8 µg/mL
S. marcescence
  MIC: 15.6 µg/mL
C. albicans
  MIC: 27 µg/mL
F. solani
  MIC: 54 µg/mL
